Source: US4435405A, “Quinoline derivatives which are 5-hydroxytryptamine antagonists” (Imperial Chemical Industries PLC, priority 1981, dated 1984)

What was measured:
LD50 in the mouse = settings: in vivo
LD50 in the rat = settings: in vivo, female
[1] = ip, intraperitoneally in the mouse

Structure (SMILES)	LD50 (LD50 in the mouse; [1]) [mg/kg]	LD50 (LD50 in the mouse; ip, mouse, male, intraperitoneal) [mg/kg]	LD50 (LD50 in the mouse; mouse, male, oral) [mg/kg]	LD50 (LD50 in the rat; oral) [mg/kg]	LD50 (LD50 in the rat; ip, intraperitoneal) [mg/kg]
COc1ccccc1-c1cc2ccccc2nc1SCCN(C)C.Cl [2-(2-dimethylaminoethylthio)-3-(o-methoxyphenyl)-quinoline hydrochloride]	~150	–	–	–	–
CC(C)c1cc2ccccc2nc1SCCN(C)C.Cl [2-(2-dimethylaminoethylthio)-3-isopropylquinoline hydrochloride]	~100	–	–	–	–
CN(C)CCSc1nc2ccccc2cc1-c1ccccc1.Cl [2-(2-dimethylaminoethylthio)-3-phenylquinoline hydrochloride]	–	75	485	> 1000	128
